Data set [1] is described as follows: Safety observation in pharmacology experiments 3 and 4 in rats. The data set is classed as in vivo. As to conditions: oral administration. The method, then: (Pharmacology Experiment 3): Inhibitory Effect on NGF-Induced Vascular Permeability Increase in Rats
The inhibitory activity against TrkA in vivo was evaluated. Clipped back male Sprague-Dawley rats (CD(SD)IGS rats, Charles River, Japan) were orally administered test compound (1) dissolved or suspended in a solvent (dose volume: 5 mL/kg). Vehicle controls were treated orally with vehicle. […] A 200 μL of the formamide extract was transferred to a 96-well plate (Nunc), and the absorbance (wavelength: 620 nm) of Evans blue extracted into formamide was measured using SpectraMax (Molecular Device). […]
The analgesic effect of the test compound (1) was evaluated in a CFA-induced rat model. […]
Measurements were made 7 days after CFA administration. After calming the animals to the measurement environment for at least 1 hour, the footpads were stimulated with von Frey filaments according to the Dixon up-down method (Journal of Neuroscience Methods, Vol. 53, pp. 55-63, 1994), and then 50% threshold (g) was calculated by the following equation. […]

Data set [2] deals with human TrkA protein (Homo sapiens (Human), UniProt P04629). Nature of the data set: Evaluation on binding activity against human TrkA protein (TrkA LanthaScreen Eu Kinase Binding Assay). As to conditions: result in words. The method, then: (Pharmacology Experiment 1): Evaluation on Binding Activity Against Human TrkA Protein
human TrkA protein, sequence (P04629 33-796): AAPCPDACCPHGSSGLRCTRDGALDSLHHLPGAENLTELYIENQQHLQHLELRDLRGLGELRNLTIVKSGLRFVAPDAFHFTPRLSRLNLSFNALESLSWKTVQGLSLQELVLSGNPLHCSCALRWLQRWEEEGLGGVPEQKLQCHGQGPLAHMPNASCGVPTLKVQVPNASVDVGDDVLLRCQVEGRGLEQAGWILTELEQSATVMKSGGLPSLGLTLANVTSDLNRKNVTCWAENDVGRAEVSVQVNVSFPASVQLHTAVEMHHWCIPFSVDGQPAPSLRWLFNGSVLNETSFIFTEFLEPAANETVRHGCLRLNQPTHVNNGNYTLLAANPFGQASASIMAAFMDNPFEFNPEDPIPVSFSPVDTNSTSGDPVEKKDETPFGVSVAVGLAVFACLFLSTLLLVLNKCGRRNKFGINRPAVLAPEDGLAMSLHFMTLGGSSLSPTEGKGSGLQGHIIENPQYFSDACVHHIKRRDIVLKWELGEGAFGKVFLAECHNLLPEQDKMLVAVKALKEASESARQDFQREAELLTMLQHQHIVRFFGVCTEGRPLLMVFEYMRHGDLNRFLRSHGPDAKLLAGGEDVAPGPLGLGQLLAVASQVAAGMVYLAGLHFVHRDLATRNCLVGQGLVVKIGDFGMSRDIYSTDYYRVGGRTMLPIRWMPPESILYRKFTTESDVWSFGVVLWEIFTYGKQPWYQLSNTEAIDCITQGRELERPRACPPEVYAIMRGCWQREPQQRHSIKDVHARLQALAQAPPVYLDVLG
Measurements were made using TrkA LanthaScreen™ Eu Kinase Binding Assay (ThermoFisher SCIENTIFIC). Into 384 well plates (Corning), a 2.5 μL solution having each concentration of the test compound (1) diluted in Kinase buffer (ThermoFisher SCIENTIC) and a 2.5 μL having 15 nM TrkA enzyme (ThermoFisher SCIENTIFIC) were added. In addition, a 5 μL having 3 nM Eu-anti-His Tag […] (ThermoFisher SCIENTIFIC) and 5 μL having 30 nM Kinase™ Tracer 236 (ThermoFisher SCIENTIFIC) were added, and allowed to react at room temperature for 60 minutes. After the reaction, the fluorescence ratio was calculated as the binding amount of the test compound (1) with TrkA enzyme, by measuring the fluorescence intensity (Emission wavelength 615 nm) and TR-FRET (Emission wavelength 665 nm) of Europium by the excitation wavelength of 340 nm using EnVision 2100 (PerkinElmer). […]
The inhibitory activity of each crystal of the test compound (1), which is 1-((1R,2R)-2-hydroxy-4,4-dimethyl-1,2,3,4-tetrahydronaphthalen-1-yl)-3-(5-methyl-6-(2-methylpyrimidin-5-yl)-2-phenylpyridin-3-yl)urea can be assessed by IC50 value.

Consider `Cc1ncc(-c2nc(-c3ccccc3)c(NC(=O)N[C@@H]3c4ccccc4C(C)(C)C[C@H]3O)cc2C)cn1` [Example 1, 1-((1R,2R)-2-hydroxy-4,4-dimethyl-1,2,3,4-tetrahydronaphthalen-1-yl)-3-(5-methyl-6-(2-methylpyrimidin-5-yl)-2-phenylpyridin-3-yl)urea], for which the “Abnormalities in the safety test” value in data set [1] is listed as “no abnormalities”. Also, the TrkA inhibitory effect result in data set [2] is reported as “excellent”.
